Experiments:
[1] = system: snapped cotyledons of Williams variety soybean; test: Snapped cotyledon assay, isoflavone and glyceollin induction, HPLC (Example 4); assay type: cell-based; conditions: 7 day old Williams soybean, average of two experiments; for Glyceollin Induction: 48 h, tested 10 uM to 1 mM alone and with 30 ug/ml glucan elicitor from Phytophthora sojae, concentration not given; for Total Isoflavone Induction: 48 h constant light, tested 10 uM to 1 mM, concentration of the printed value not stated, standard error less than 15%
Protocol: The snapped cotyledon assay is a minimal wound assay used to investigate the effects of test compounds in a non-primed background. The assay is performed by snapping cotyledons in two and placing the petiole side down in 0.5% water agar. Ten snapped cotyledons are used per treatment, and the subepidermal cells exposed by snapping are treated with glucan defense elicitor and/or the effector (i.e., diphenyl ether) being examined. The cotyledons are incubated in the light for 48 h as in the cut cotyledon assay. Both proximal (first cell layer) and distal (second and third cell layers) are harvested for analysis by HPLC (see below). Full details of this assay can be found in the publication: Graham, T. L. and Graham, M. Y. 1996. Signaling in soybean phenylpropanoid responses: dissection of primary, secondary and conditioning effects of light, wounding and elicitor treatments. Plant Physiol. 110:1123-1133.
The snapped cotyledon assay is “naive.” That is, it is not pre-disposed or primed for competency for the elicitation of phytoalexin glyceollin in response to the glucan elicitor. Thus, treatment with the glucan elicitor induces the formation of the isoflavones daidzein and genistein, but very little glyceollin. This is an excellent assay to study the effects of a chemical treatment on isoflavone metabolism by itself or in combination with the glucan. In the absence of the glucan, it gives an excellent picture of the effects of the compound alone on isoflavone metabolism. In the presence of the glucan, it tells us if the test compound can induce elicitation competency for the glyceollin response to the glucan.
High performance liquid chromatography (HPLC) is the method of choice for determining the levels of isoflavone defense compounds in soybean. With a single HPLC analysis, one gets a complete and quantitative profile of up to 50 or more aromatic compounds, including all the isoflavones and their conjugates and the phytoalexins, including glyceollin. As little as 20 mg of plant tissue is needed and the method can be readily applied to cotyledon, leaf or any soybean tissue. This analytical method allows us to determine the nmoles/g of each metabolite, which can then readily be processed to compare the percent increase or decrease of a given metabolite in comparison to either water or glucan-treated control tissues. Routinely, tissues are extracted in 80% ethanol and subjected to water/acetonitrile gradient elution from a C18 reverse phase HPLC column. Full details of this procedure can be found in the publication: Graham, T. L. 1991. A Rapid, High Resolution High Performance Liquid Chromatography Profiling Procedure for Plant and Microbial Aromatic Secondary Metabolites. Plant Physiol. 95:584-593. […]

[2] = system: cut cotyledons (Williams cotyledons); test: Cut cotyledon assay, isoflavones (Williams cotyledons); assay type: cell-based, soybean; conditions: 50-500 uM
Protocol: The cut cotyledon assay is used to investigate both the ability of a compound (effector) to activate basal elicitation competency in plants, and to evaluate the ability of a secondary compound (elicitor) to enhance glyceollin elicitation competency in plants in which the isoflavone pools were “loaded” by the action of the effector.
The level of isoflavones in the cotyledon tissues are measured after the addition of different diphenyl ethers to determine the effectiveness of each in inducing the basal production of isoflavones in cotyledon tissues (effector studies). In the elicitor studies, the addition of diphenyl ether first “primes” the cut cotyledon. […] Thus, the ability of a compound to enhance glyceollin elicitation competency by “loading” the isoflavone pools can also be measured.
Cotyledons from 7-8 day old soybean seedlings are removed from the plant and cut on the lower surface to expose subepidermal tissues. […] Tissues are analyzed by HPLC as noted below. […]
High performance liquid chromatography (HPLC) is the method of choice for determining the levels of isoflavone defense compounds in soybean. With a single HPLC analysis, one gets a complete and quantitative profile of up to 50 or more aromatic compounds, including all the isoflavones and their conjugates and the phytoalexins, including glyceollin. […]

SMILES	Glyceollin Induction [1]	Total Isoflavone Induction [1]	range of increase of isoflavones over the concentration range [2]
O=C(O)c1cc(Oc2ccc(C(F)(F)F)cc2Cl)ccc1[N+](=O)[O-] [Acifluorfen, acifluorfen]	+122%	+56%	–
CS(=O)(=O)NC(=O)c1cc(Oc2ccc(C(F)(F)F)cc2Cl)ccc1[N+](=O)[O-] [Fomesafen, fomesafen]	+233%	+85%	–
N[C@@H](Cc1cc(I)c(Oc2cc(I)c(O)c(I)c2)c(I)c1)C(=O)O [thyroxine]	–	–	20-40%

— US20040033902A1, “Diphenyl ehter induction systemic resistance in plants” (priority 2002, published 2004)
